From patent US20210364497A1, “IFN-beta Reporter System for Primary Cells” (UNIVERSITY OF MIAMI, priority 2018, published 2021)

Test system: Human IFNβ promoter
Assay: GLuc/SEAP dual reporter assay of the IFNβ promoter in hTERT-pIFNβ-GLuc cells
Assay type: cell-based
Settings: FIG. 3B; hTERT-pIFNB-Gluc cells treated, 3 μg/ml, 24 hours
Method: Human IFNβ promoter (sequence in FIG. 1) was cloned into Lentiviral vector pEZX-LvPG04 at GeneCopoeia. Lentiviral plasmid was co-transfected with LentiViral Package System (LENT-PACT™) into 293T cells using Lipofectamine 2000. 293T medium containing Lentiviral particles was collected 48 hours post transfection, filtered through 0.2 μM filter, and transduced to pre-seeded hTERT cells in the presence of 10 μg/ml polybrene. Transduction was repeated twice in 2 consecutive days. 48 hours after the last transduction, hTERT cells were selected by 2 μg/ml puromycin for 4 weeks. Single colonies of transduced hTERT cells were puromycin selected, and expanded for IENβ promoter-luciferase assay validation.
To test the establishment of GLuc/SEAP-ρIENs1 reporter system, hTERT clones were mock treated (lipo) or transfected with synthetic double-stranded DNA (dsDNA). hTERT-ρIENβ-GLuc cells were transfected with synthetic 90-mer double-stranded DNA (dsDNA90) at 3 μg/ml using Lipofectamine 2000. 24 hours later, cell media was collected and analyzed for GLuc and SEAP activity using the Secrete-Pair Dual Luminescence Assay Kits (GeneCopoeia).
In additional experiments, hTERT-pIFNB-Gluc cells were treated with LPS1 (1 μg/ml) or transfected with dsDNA90 (3 μg/ml) or 2′-3′ cGAMP (3 μg/ml) for 24 hours. […]

## poly I:C
  GLuc expression (Gluc activity normalized by SEAP internal control): activated
